Laboratory results: PubChem BioAssay AID248 (DTP/NCI, 2004)
Where “and” joins values, the source holds several entries; their conditions need not be identical. Identical values can stand only once. Toxic doses and inconclusive results are not listed. No stated cut-off is given here; in the data, active means T/C of 150% or more; inactive means T/C below 125%.

Test system: L1210 leukemia ip in BDF1 mice, survival T/C
Assay: NCI In Vivo Anticancer Drug Screen. Data for tumor model L1210 Leukemia (intraperitoneal) in B6D2F1 (BDF1) mice
Conditions: endpoint: mean survival time, higher = longer survival
How it was run: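 Transplanted-tumor mice were given test agent; controls received vehicle only. Survival readings from the two groups were divided (treated over control).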

[1] = dose: 50.0 mg/kg/injection, schedule: Q01DX009 (ip), vehicle: Klucel (hydroxypropylcellulose) (HPC)
[2] = dose: 100.0 mg/kg/injection, schedule: Q01DX009 (ip), vehicle: Klucel (hydroxypropylcellulose) (HPC)
[3] = dose: 100.0 mg/kg/injection, schedule: Q01DX001 (ip), vehicle: other
[4] = dose: 200.0 mg/kg/injection, schedule: Q01DX001 (ip), vehicle: other
[5] = dose: 400.0 mg/kg/injection, schedule: Q01DX001 (ip), vehicle: other
[6] = dose: 100.0 mg/kg/injection, schedule: Q04DX003 (ip), vehicle: Klucel (hydroxypropylcellulose) (HPC)
[7] = dose: 200.0 mg/kg/injection, schedule: Q04DX003 (ip), vehicle: Klucel (hydroxypropylcellulose) (HPC)
[8] = dose: 400.0 mg/kg/injection, schedule: Q04DX003 (ip), vehicle: Klucel (hydroxypropylcellulose) (HPC)
[9] = dose: 100.0 mg/kg/injection, schedule: Q04DX003 (ip), vehicle: saline
[10] = dose: 200.0 mg/kg/injection, schedule: Q04DX003 (ip), vehicle: saline
[11] = dose: 400.0 mg/kg/injection, schedule: Q04DX003 (ip), vehicle: saline
[12] = dose: 50.0 mg/kg/injection, schedule: Q01DX009 (ip), vehicle: saline
[13] = dose: 100.0 mg/kg/injection, schedule: Q01DX009 (ip), vehicle: saline
[14] = dose: 25.0 mg/kg/injection, schedule: Q01DX009 (ip), vehicle: saline
[15] = dose: 25.0 mg/kg/injection, schedule: Q04DX003 (ip), vehicle: saline
[16] = dose: 50.0 mg/kg/injection, schedule: Q04DX003 (ip), vehicle: saline
[17] = dose: 100.0 mg/kg/injection, schedule: Q01DX001 (ip), vehicle: carboxymethylcellulose (CMC)
[18] = dose: 200.0 mg/kg/injection, schedule: Q01DX001 (ip), vehicle: carboxymethylcellulose (CMC)
[19] = dose: 400.0 mg/kg/injection, schedule: Q01DX001 (ip), vehicle: carboxymethylcellulose (CMC)
[20] = dose: 100.0 mg/kg/injection, schedule: Q01DX001 (ip), vehicle: saline with Tween-80
[21] = dose: 200.0 mg/kg/injection, schedule: Q01DX001 (ip), vehicle: saline with Tween-80

Measured: T/C

O=C1NC(c2ccccc2Cl)Nc2ccccc21 (centres undefined)
inactive: [1] 103 % of control | [2] 101 % of control | dose: 150.0 mg/kg/injection, schedule: Q01DX009 (ip), vehicle: Klucel (hydroxypropylcellulose) (HPC) 97 % of control

Cc1ccc(S(=O)(=O)OC2CN(S(C)(=O)=O)CC(OS(=O)(=O)c3ccc(C)cc3)CN(S(C)(=O)=O)C2)cc1 (centres undefined)
inactive: dose: 25.0 mg/kg/injection, schedule: Q04DX002 (ip), vehicle: Klucel (hydroxypropylcellulose) (HPC) 89 % of control | dose: 50.0 mg/kg/injection, schedule: Q04DX002 (ip), vehicle: Klucel (hydroxypropylcellulose) (HPC) 103 % of control | dose: 100.0 mg/kg/injection, schedule: Q04DX002 (ip), vehicle: Klucel (hydroxypropylcellulose) (HPC) 92 % of control

S=c1nc[nH]c2cc[nH]c12
inactive: [3] 95 % of control | [4] 98 % of control | [5] 101 % of control

Cn1/c(=N/N=C(N)N)ccc2ccccc21
inactive: dose: 15.0 mg/kg/injection, schedule: Q01DX Z (ip), vehicle: methylcellulose (MC) 100 % of control | dose: 30.0 mg/kg/injection, schedule: Q01DX Z (ip), vehicle: methylcellulose (MC) 108 % of control | dose: 30.0 mg/kg/injection, schedule: Q01DX Z (oral), vehicle: methylcellulose (MC) 95 % of control | dose: 60.0 mg/kg/injection, schedule: Q01DX Z (ip), vehicle: methylcellulose (MC) 107 % of control | dose: 60.0 mg/kg/injection, schedule: Q01DX Z (oral), vehicle: methylcellulose (MC) 101 % of control | dose: 120.0 mg/kg/injection, schedule: Q01DX Z (ip), vehicle: methylcellulose (MC) 103 % of control | dose: 120.0 mg/kg/injection, schedule: Q01DX Z (oral), vehicle: methylcellulose (MC) 97 % of control | dose: 240.0 mg/kg/injection, schedule: Q01DX Z (ip), vehicle: methylcellulose (MC) 98 % of control | dose: 240.0 mg/kg/injection, schedule: Q01DX Z (oral), vehicle: methylcellulose (MC) 95 % of control | dose: 375.0 mg/kg/injection, schedule: Q01DX Z (oral), vehicle: methylcellulose (MC) 95 % of control

CC(C)CCCC(C)C1CCC2C3CC4C(F)(F)C45CC4(CCC5(C)C3CCC12C)OCCO4 (centres undefined)
inactive: dose: 100.0 mg/kg/injection, schedule: Q04DX002 (ip), vehicle: other 101 % of control | dose: 200.0 mg/kg/injection, schedule: Q04DX002 (ip), vehicle: other 90 % of control | dose: 400.0 mg/kg/injection, schedule: Q04DX002 (ip), vehicle: other 93 % of control

COc1ccc(-c2c(-c3ccccc3)oc3ccc4ccccc4c23)cc1
inactive: dose: 100.0 mg/kg/injection, schedule: Q01DX009 (ip), vehicle: saline with Tween-80 87 % of control | dose: 200.0 mg/kg/injection, schedule: Q01DX009 (ip), vehicle: saline with Tween-80 93 % of control | dose: 400.0 mg/kg/injection, schedule: Q01DX009 (ip), vehicle: saline with Tween-80 92 % of control

CC(N=Nc1ccccc1)/N=N/c1nn[nH]n1 (centres undefined)
inactive: [6] 100 % of control | [7] 94 % of control | [8] 96 % of control

COC(=O)C(N)CSCc1ccccc1 (centres undefined)
inactive: [9] 87 % of control | [10] 89 % of control | [11] 94 % of control

CC1CC1C(=O)Cl (centres undefined)
inactive: [12] 97 % of control | [13] 101 % of control

COC(=O)C1=COC(C)C(C=O)C1CC(=O)O (centres undefined)
inactive: dose: 12.5 mg/kg/injection, schedule: Q01DX009 (ip), vehicle: saline 108 % of control | dose: 20.0 mg/kg/injection, schedule: Q01DX001 (ip), vehicle: saline 103 % of control | [14] 103 % of control | [15] 110 % of control | dose: 40.0 mg/kg/injection, schedule: Q01DX001 (ip), vehicle: saline 118 % of control | [16] 111 % of control | dose: 80.0 mg/kg/injection, schedule: Q01DX001 (ip), vehicle: saline 118 % of control

CCOCCNC1=C(Cl)C(=O)c2ccccc2C1=O
inactive: [3] 97 % of control | [4] 93 % of control | [5] 90 % of control

CN1CCC=C(CN2c3ccccc3Sc3ccccc32)C1
inactive: [14] 109 % of control | [15] 101 % of control | [12] 119 % of control | [16] 105 % of control | [13] 124 % of control | [9] 103 % of control and 105 % of control

COc1ccc(OC)c(NC(=O)Oc2ccccc2C(N)=O)c1
inactive: dose: 25.0 mg/kg/injection, schedule: Q04DX003 (ip), vehicle: Klucel (hydroxypropylcellulose) (HPC) 89 % of control | dose: 50.0 mg/kg/injection, schedule: Q04DX003 (ip), vehicle: Klucel (hydroxypropylcellulose) (HPC) 95 % of control | [6] 94 % of control and 92 % of control

O=C(NNC1CCN(Cc2ccccc2)CC1)c1ccccc1
inactive: dose: 10.0 mg/kg/injection, schedule: Q01DX009 (ip), vehicle: saline with Tween-80 95 % of control | dose: 10.0 mg/kg/injection, schedule: Q04DX003 (ip), vehicle: saline with Tween-80 100 % of control | dose: 20.0 mg/kg/injection, schedule: Q01DX009 (ip), vehicle: saline with Tween-80 103 % of control | dose: 20.0 mg/kg/injection, schedule: Q04DX003 (ip), vehicle: saline with Tween-80 102 % of control | dose: 40.0 mg/kg/injection, schedule: Q01DX009 (ip), vehicle: saline with Tween-80 93 % of control | dose: 40.0 mg/kg/injection, schedule: Q04DX003 (ip), vehicle: saline with Tween-80 106 % of control

CSc1cc2c(cc1NC(C)=O)C(=O)c1cc(F)ccc1-2
inactive: [17] 98 % of control | [18] 101 % of control | [19] 95 % of control

CCOC(=O)CN(CCN(CC)CC)c1ccc([N+](=O)[O-])cc1[N+](=O)[O-]
inactive: [3] 92 % of control | [4] 87 % of control | [5] 100 % of control

CCCCN1C(=O)CCC1=O
inactive: [9] 110 % of control | [10] 103 % of control | [11] 110 % of control

CN(C)S(=O)(=O)/C=C/c1ccccc1
inactive: [7] 95 % of control | [8] 109 % of control

Cc1ccc(S(=O)(=O)N(c2cc(C)ccc2C)c2ccccc2[N+](=O)[O-])cc1
inactive: dose: 50.0 mg/kg/injection, schedule: Q01DX001 (ip), vehicle: carboxymethylcellulose (CMC) 98 % of control | [17] 91 % of control | [18] 96 % of control | [19] 98 % of control

CSc1ccccc1C=Nc1ccccc1O
inactive: [20] 101 % of control | [21] 98 % of control | dose: 400.0 mg/kg/injection, schedule: Q01DX001 (ip), vehicle: saline with Tween-80 103 % of control

Nc1nnnn1N(Cc1ccccc1)Cc1ccccc1
inactive: [6] 96 % of control | [7] 117 % of control

Nc1nc(N)c(N)c(SCC(=O)C(=O)O)n1
inactive: dose: 25.0 mg/kg/injection, schedule: Q01DX001 (ip), vehicle: saline with Tween-80 108 % of control | dose: 50.0 mg/kg/injection, schedule: Q01DX001 (ip), vehicle: saline with Tween-80 111 % of control | [20] 106 % of control and 108 % of control | [21] 115 % of control

c1ccc2c(c1)cc1ccc3cc4ccccc4c4ccc2c1c34
inactive: dose: 50.0 mg/kg/injection, schedule: Q01DX009 (ip), vehicle: acetone 110 % of control | [17] 100 % of control | dose: 100.0 mg/kg/injection, schedule: Q01DX009 (ip), vehicle: acetone 105 % of control | [18] 100 % of control | dose: 200.0 mg/kg/injection, schedule: Q01DX009 (ip), vehicle: acetone 107 % of control | [19] 100 % of control

O=CC1=C(Cl)c2ccccc2CC1
inactive: dose: 12.5 mg/kg/injection, schedule: Q04DX003 (ip), vehicle: acetone 98 % of control

Nc1csc2ncccc12
inactive: dose: 100.0 mg/kg/injection, schedule: Q01DX001 (ip), vehicle: Klucel (hydroxypropylcellulose) (HPC) 112 % of control | dose: 200.0 mg/kg/injection, schedule: Q01DX001 (ip), vehicle: Klucel (hydroxypropylcellulose) (HPC) 105 % of control | dose: 400.0 mg/kg/injection, schedule: Q01DX001 (ip), vehicle: Klucel (hydroxypropylcellulose) (HPC) 114 % of control

O=[N+]([O-])c1ccc(S(=O)(=O)CCCl)cc1
inactive: [1] 100 % of control | [2] 91 % of control
